One experiment addresses Plasmepsin I (Plasmodium falciparum, UniProt P39898). Description: Inhibition of Plasmodium falciparum plasmepsin 1 preincubated for 30 mins followed by DABCYL-Glu-Arg-Nle-Phe-Leu-Ser-Phe-Pro-EDANS substrate addition by FRET assay.
The nature of experiment [1]: Inhibition of Plasmodium falciparum plasmepsin 4 preincubated for 30 mins followed by DABCYL-Glu-Arg-Nle-Phe-Leu-Ser-Phe-Pro-EDANS substrate addition by FRET assay.
A further experiment concerns the target Plasmepsin II (Plasmodium falciparum, UniProt P46925). Put plainly: Inhibition of Plasmodium falciparum plasmepsin 2 preincubated for 30 mins followed by DABCYL-Glu-Arg-Nle-Phe-Leu-Ser-Phe-Pro-EDANS substrate addition by FRET assay.
In another experiment the target is Cathepsin D (Homo sapiens, UniProt P07339). Description: Inhibition of CatD (unknown origin) preincubated for 30 mins followed by DABCYL-Glu-Arg-Nle-Phe-Leu-Ser-Phe-Pro-EDANS substrate addition by FRET assay.
The subject of a further experiment is Plasmodium falciparum. Description: Antimalarial activity against Plasmodium falciparum 3D7 after 96 hrs by SYBR Green 1 assay. Type of experiment: functional, organism-based. The note with it: 3D7, 96 h.

The IC50 is the concentration needed to halve the response being measured. High values mean a need for much substance, low ones inhibition by little substance. Usually EC50 stands for the midpoint of the concentration-response curve. Higher therefore signals a less potent agent.

Plasmepsin II, sequence (P46925 whole entry): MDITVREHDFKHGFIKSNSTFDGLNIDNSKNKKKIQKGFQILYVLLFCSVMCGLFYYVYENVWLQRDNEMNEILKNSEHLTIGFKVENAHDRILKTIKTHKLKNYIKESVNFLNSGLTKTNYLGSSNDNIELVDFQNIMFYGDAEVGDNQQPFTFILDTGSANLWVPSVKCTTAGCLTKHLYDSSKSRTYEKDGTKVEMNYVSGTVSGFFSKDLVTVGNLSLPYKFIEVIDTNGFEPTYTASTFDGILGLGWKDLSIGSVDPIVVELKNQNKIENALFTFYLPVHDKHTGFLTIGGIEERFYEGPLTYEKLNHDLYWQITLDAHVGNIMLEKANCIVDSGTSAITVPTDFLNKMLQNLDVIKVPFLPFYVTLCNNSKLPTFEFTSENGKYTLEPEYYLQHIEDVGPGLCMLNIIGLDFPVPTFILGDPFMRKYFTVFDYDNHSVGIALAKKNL
Plasmepsin I, sequence (P39898 whole entry): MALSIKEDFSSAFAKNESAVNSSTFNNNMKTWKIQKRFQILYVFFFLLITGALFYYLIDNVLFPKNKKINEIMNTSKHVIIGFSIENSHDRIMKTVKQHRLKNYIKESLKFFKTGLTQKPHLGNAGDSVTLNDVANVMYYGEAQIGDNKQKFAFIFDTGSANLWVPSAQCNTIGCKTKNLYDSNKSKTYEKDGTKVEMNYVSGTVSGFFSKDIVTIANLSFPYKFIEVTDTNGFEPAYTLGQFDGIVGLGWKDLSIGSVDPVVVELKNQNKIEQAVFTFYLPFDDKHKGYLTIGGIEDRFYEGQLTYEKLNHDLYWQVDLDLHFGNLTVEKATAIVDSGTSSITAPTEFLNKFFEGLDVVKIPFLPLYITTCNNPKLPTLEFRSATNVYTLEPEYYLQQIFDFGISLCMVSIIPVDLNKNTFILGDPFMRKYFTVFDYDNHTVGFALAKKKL
Cathepsin D, sequence (P07339 65-162 limits assumed): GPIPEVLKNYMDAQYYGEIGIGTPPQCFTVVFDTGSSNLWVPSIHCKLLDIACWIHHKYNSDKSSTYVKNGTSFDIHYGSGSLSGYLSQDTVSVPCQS
Cathepsin D, sequence (P07339 169-412 limits assumed): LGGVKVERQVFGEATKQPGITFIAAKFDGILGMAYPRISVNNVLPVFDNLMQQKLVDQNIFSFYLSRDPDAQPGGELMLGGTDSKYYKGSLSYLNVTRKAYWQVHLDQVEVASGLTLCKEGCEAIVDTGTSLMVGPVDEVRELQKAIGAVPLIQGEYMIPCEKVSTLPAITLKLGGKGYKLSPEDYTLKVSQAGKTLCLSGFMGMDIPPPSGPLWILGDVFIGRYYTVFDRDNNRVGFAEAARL

Consider `Nc1nc2cc(-c3ccccc3)ccc2c(=O)n1C[C@H]1CC[C@@H](c2ccccc2)O1`, for which the half-inhibitory concentration (IC50) was 1200 nM against Plasmepsin I, 500 nM in experiment [1], 340 nM on Plasmepsin II and 4600 nM against Cathepsin D.
Taken in the same sequence, the figures for `Nc1nc2cc(-c3ccccc3)ccc2c(=O)n1C[C@@H]1CC[C@H](c2ccccc2)O1` were 4600 nM, 2700 nM, 3000 nM and 22000 nM.
Take `Nc1nc2cc(-c3ccccc3)ccc2c(=O)n1CC1CC(c2ccccc2)CO1` (mixture of isomers): the IC50 against Plasmepsin I is 52000 nM; in experiment [1] it was 20000 nM; against Plasmepsin II it was 12500 nM; on Cathepsin D, over 200000 nM.
`Nc1nc2cc(-c3ccc(C4CCCCC4)cc3)ccc2c(=O)n1C[C@@H]1CC[C@H](c2ccccc2)O1` (racemic): the half-maximal inhibitory concentration (IC50) is 500 nM on Plasmepsin I, 800 nM in experiment [1], 2400 nM at Plasmepsin II and 8600 nM against Cathepsin D.
Turning to `CCCCc1ccc(-c2ccc3c(=O)n(C[C@@H]4CC[C@H](c5ccccc5)O4)c(N)nc3c2)cc1` (racemic), the IC50 was determined as 300 nM against Plasmepsin I, 200 nM in experiment [1], 230 nM against Plasmepsin II and 2200 nM against Cathepsin D. In the experiment on Plasmodium falciparum, the EC50 is 900 nM.
For the molecule `Nc1nc2cc(-c3ccc(CCc4ccccc4)cc3)ccc2c(=O)n1C[C@@H]1CC[C@H](c2ccccc2)O1` (racemic), the IC50 turned out to be 2000 nM against Plasmepsin I, 700 nM in experiment [1], 2000 nM against Plasmepsin II and 220000 nM against Cathepsin D.
`Nc1nc2cc(-c3ccc(CCCCc4ccccc4)cc3)ccc2c(=O)n1C[C@@H]1CC[C@H](c2ccccc2)O1` (racemic): the IC50 on Plasmepsin I is 6500 nM; in experiment [1] it was 400 nM; at Plasmepsin II, 32000 nM; on Cathepsin D, 91000 nM. The molecule further returned an EC50 in the experiment with Plasmodium falciparum of 3900 nM.
Consider `Nc1nc2cc(-c3ccc(CCCc4ccccc4)cc3)ccc2c(=O)n1C[C@@H]1CC[C@H](c2ccccc2)O1` (racemic), for which the IC50 against Plasmepsin I was 3200 nM; in experiment [1], 130 nM; against Plasmepsin II, 10000 nM; at Cathepsin D, 6000 nM. This molecule also returned an EC50 with Plasmodium falciparum of 1200 nM.
Regarding `Nc1nc2cc(-c3ccccc3)ccc2c(=O)n1CC1CCC2(CCCCC2)O1` (racemic), the IC50 against Plasmepsin I came out at 2000 nM; in experiment [1], 3000 nM; on Plasmepsin II it was 5300 nM; against Cathepsin D it was 9000 nM.
Taken in the same sequence, the figures for `Nc1nc2cc(-c3ccc(CCCCCc4ccccc4)cc3)ccc2c(=O)n1C[C@@H]1CC[C@H](c2ccccc2)O1` (racemic) were 36000 nM, 2000 nM, 12000 nM and 52000 nM.
As to `Nc1nc2cc(-c3ccccc3)ccc2c(=O)n1C[C@@H]1CC[C@H](c2ccc3ccccc3c2)O1` (racemic), the concentration for half-maximal inhibition (IC50) on Plasmepsin I was 3700 nM; in experiment [1], 1300 nM; against Plasmepsin II it was 2500 nM; against Cathepsin D it was 19500 nM.
In the case of `CCCCCc1ccc(-c2ccc3c(=O)n(C[C@@H]4CC[C@H](c5ccccc5)O4)c(N)nc3c2)cc1` (racemic), the IC50 came to 300 nM against Plasmepsin I, 100 nM in experiment [1], 150 nM against Plasmepsin II and 5000 nM on Cathepsin D. In the experiment with Plasmodium falciparum, this molecule had an EC50 of 1100 nM.
Turning to `Nc1nc2cc(-c3ccccc3)ccc2c(=O)n1C[C@@H]1CC[C@H](c2ccccc2)O1` (racemic), the half-maximal inhibitory concentration (IC50) was 1300 nM against Plasmepsin I, 600 nM in experiment [1], 570 nM against Plasmepsin II and 13800 nM at Cathepsin D.
Taken in the same sequence, the figures for `Nc1nc2cc(-c3ccc(CCC4CCCCC4)cc3)ccc2c(=O)n1C[C@@H]1CC[C@H](c2ccccc2)O1` (racemic) were 9400 nM, 1200 nM, 10700 nM and 100000 nM.
Taken in the same sequence, the figures for `CC(C)CCc1ccc(-c2ccc3c(=O)n(C[C@@H]4CC[C@H](c5ccccc5)O4)c(N)nc3c2)cc1` (racemic) were 1400 nM, 400 nM, 600 nM and over 100000 nM.
Taken in the same sequence, the figures for `Nc1nc2cc(-c3ccccc3)ccc2c(=O)n1C[C@@H]1CCCO1` (racemic) were 6000 nM, 1300 nM, 2300 nM and 53400 nM.
For `Nc1nc2cc(-c3ccccc3)ccc2c(=O)n1C[C@@H]1CC[C@@H](c2ccccc2)O1` (racemic), the IC50 at Plasmepsin I came to 2400 nM; in experiment [1], 1100 nM; against Plasmepsin II, 2900 nM; against Cathepsin D, 9000 nM.
Taken in the same sequence, the figures for `CC(C)[C@H]1CC[C@@H](Cn2c(N)nc3cc(-c4ccccc4)ccc3c2=O)O1` (racemic) were 2300 nM, 1500 nM, 1600 nM and 25000 nM.
`CCCCc1cccc(-c2ccc3c(=O)n(C[C@@H]4CC[C@H](c5ccccc5)O4)c(N)nc3c2)c1` (racemic): the IC50 was 800 nM against Plasmepsin I, 1000 nM in experiment [1], 2000 nM against Plasmepsin II and 3000 nM at Cathepsin D.
Taken in the same sequence, the figures for `COC(=O)CCc1ccc(-c2ccc3c(=O)n(C[C@@H]4CC[C@H](c5ccccc5)O4)c(N)nc3c2)cc1` (racemic) were 270 nM, 400 nM, 2600 nM and 1400 nM.
Taken in the same sequence, the figures for `Nc1nc2cc(-c3ccc(CCC4CC4)cc3)ccc2c(=O)n1C[C@@H]1CC[C@H](c2ccccc2)O1` (racemic) were 480 nM, 300 nM, 400 nM and 3200 nM.

(Values after ChEMBL document CHEMBL3763050, “Fragment-Based Discovery of 2-Aminoquinazolin-4(3H)-ones As Novel Class Nonpeptidomimetic Inhibitors of the Plasmepsins I, II, and IV” (J Med Chem, 2016).)
